Reference: patent publication US5128420A, “Method of making hydroxamic acid polymers from primary amide polymers” (Massachusetts Institute of Technology, priority 1988, dated 1992)

System: urease forming bacteria, Proteus
Assay: Urease inhibition activity (ammonia production by urease forming bacteria in artificial urine)
Format: cell-based
Experimental: PHA was tested for urease inhibition activity using the procedure of Griffith et al in Investigative Urology 13(5),346-350(1976). Briefly, one square centimeter of agar slab containing a layer of urease forming bacteria, Proteus, was dissolved in 25 ml of artificial urine made of 25 g urea dissolved in one liter water. 30 mg polymer was added per ml urine and the mixture incubated overnight at 37° C. The production of ammonia, indicative of urease activity, was measured using an amino acid analyzer.
*% activity was estimated relative to AHA from the ratio between the
decrease in ammonia number of the polymer and AHA.

With `CC(=O)NO` [AHA, acetyl hydroxamic acid] the Ammonia (30 mg per ml artificial urine, overnight at 37° C., amino acid analyzer) was 1165-1331 and the “% Activity” value (estimated relative to AHA from the ratio between the decrease in ammonia number of the polymer and AHA) was 100%.
